Results from US10654820B2, “Crystal form of tasimelteon” (ZHEJIANG JINGXIN PHARMACEUTICAL CO., LTD., priority 2016, dated 2020).
Values after ≈ are worked out from the molar mass of the structure shown. “Also recorded” adds a separate entry of the source.

Legend:
[1] = Solubility in water at 37° C. (equilibrium solubility, 72 hours, absorbance at 281 nm); assay type: physicochemical; conditions: balanced for 72 hours
Description: Example 22 Solubility in Water at 37° C.
Move 25 ml water into a 50 ml eggplant bottle separately, add crystal form I and crystal form II Tasimelteon separately, stir in a constant temperature oil bath to balance for 72 hours, and then filtrate by 0.45 microporous membrane. The filtrate is diluted by water. The water solubilities of crystal form I and crystal form II at 37° C. were determined by calculating each sample concentration of its saturated solution determined through measuring absorbance at λmax (281 nm). Standard curve method is used to calculate the equilibrium solubility.

[2] = Intrinsic dissolution studies in water; assay type: physicochemical; conditions: 37° C., 150 r.p.m., compressed disk
Description: Example 23 Intrinsic Dissolution Studies
200 mg of crystal form I or crystal form II was taken in the intrinsic attachment and compressed to a 1.33 cm^2 and 0.1 cm thick of disk using a hydraulic press at a pressure of 9 MPa for 60 s. The intrinsic attachment was placed in a jar of 100 mL of water to 37° C. and rotated at 150 r.p.m. 1 milliliter of the aliquot each is collected at specific time intervals and blank medium of the same volume and temperature is added, and the absorbance at max (281 nm) is measured, and the cumulative dissolution rate is calculated to plot the concentration-time standard curves of the respective compounds.

[3] = Thermogravimetric analysis (TGA), thermal stability; assay type: physicochemical; conditions: for thermal stability: result in words
Description: Thermogravimetric Analysis (TGA)
TGA was performed on a TA instruments SDT Q600 thermogravimetric analyzer. The samples were heated over the temperature range room temperature of 30-365° C. at a constant heating rate of 10° C./min. The samples were purged with a stream of flowing nitrogen at 120 ml/min throughout the experiment.

[4] = test system: totally blind subjects diagnosed with non-24; conditions: cited from earlier work

solubility at 72 h ([1]; 37 °C, thermodynamic from solid)	intrinsic dissolution rate ([2]; FIG. 9, listed as form I)	thermal stability [3]	water solubility [1]	decomposition temperature (TGA) ([3]; heating rate of 10° C./min, nitrogen)	Compound	intrinsic dissolution rate ([2]; FIG. 9)	proportion of individuals becoming entrained to the 24-hour cycle ([4]; physiologic monitoring, compared with placebo)	efficacy on nighttime wakefulness and daytime napping ([4]; totally blind subjects diagnosed with non-24)
81 µg/mL (≈ 330 µM)	good dissolution rate	good thermal stability	–	–	CCC(=O)NC[C@@H]1C[C@H]1c1cccc2c1CCO2 [crystal form I, (1R-2R)—N-[2-(2,3-dihydrobenzofuran-4-yl)cyclopropylmethyl]propanamide]	high	–	–
–	–	–	–	–	CCC(=O)NC[C@@H]1C[C@H]1c1cccc2c1CCO2 [Tasimelteon, (1R-2R)—N-[2-(2,3-dihydrobenzofuran-4-yl)cyclopropylmethyl]propanamide]	–	higher proportion of individuals becoming entrained to the 24-hour cycle compared with placebo	reducing both nighttime wakefulness and daytime napping
–	–	good thermal stability	104 µg/mL (≈ 424 µM)	approximately 200 °C	CCC(=O)NC[C@@H]1C[C@H]1c1cccc2c1CCO2 [crystal form II, (1R-2R)—N-[2-(2,3-dihydrobenzofuran-4-yl)cyclopropylmethyl]propanamide]	high in water, especially for crystal form II compared to crystal form I; also recorded: good dissolution rate, especially for crystal form II compared to form I	–	–
